Data set [1] relates to Alternaria brassicae. In words: In vivo preventive test on Alternaria brassicae (leaf spot on radish). As to conditions: preventive spray on radish plants, grading 6 days after contamination vs control plants. As for the experimental part:
Radish plants (“Pernod Clair” variety), sown in starter cups on a 50/50 peat soil-pozzolana substrate and grown at 17° C., are treated at the cotyledon stage by spraying with the active ingredient prepared as described above. Plants, used as controls, are treated with the mixture of acetone/tween/DMSO/water not containing the active material. After 24 hours, the plants are contaminated by spraying the cotyledons with an aqueous suspension of Alternaria brassicae spores (50 000 spores per ml). The spores are collected from a 15-day-old culture. The contaminated radish plants are incubated at 20° C. and at 100% relative humidity. Grading (% of efficacy) is carried out 6 days after the contamination, in comparison with the control plants.

The test system of data set [2] is Puccinia recondita. In words: In vivo preventive test on Puccinia recondita (brown rust on wheat). Conditions: preventive spray on wheat plants, grading 12 days after contamination vs control plants. As for the experimental part: Wheat plants (“Scipion” variety), sown in starter cups on a 50/50 peat soil-pozzolana substrate and grown at 22° C., are treated at the 1-leaf stage (10 cm height) by spraying with the active ingredient prepared as described above. Plants, used as controls, are treated with the mixture of acetone/tween/DMSO/water not containing the active material. After 24 hours, the plants are contaminated by spraying the leaves with an aqueous suspension of Puccinia recondita spores (100 000 spores per ml). […] The contaminated wheat plants are incubated for 24 hours at 20° C. and at 100% relative humidity, and then for 10 days at 20° C. and at 70-80% relative humidity. Grading (% of efficacy) is carried out 12 days after the contamination, in comparison with the control plants.

Data set [3] can be described thus: Measurement of log P values by HPLC on reversed phase columns (EEC directive 79/831 Annex V.A8). The format is physicochemical. Conditions: for logP: Table 1 active ingredients.
The test system of data set [4] is Uromyces appendiculatus. The experiment in a line: In vivo preventive test on Uromyces appendiculatus (bean rust). As to conditions: preventive spray on bean plants, grading 11 days after contamination vs control plants. As for the experimental part:
Bean plants (“Saxa” variety), sown in starter cups on a 50/50 peat soil-pozzolana substrate and grown at 24° C., are treated at the 2-leaf stage (9 cm height) by spraying with the active ingredient prepared as described above. Plants, used as controls, are treated with the mixture of acetone/tween/DMSO/water not containing the active material. After 24 hours, the plants are contaminated by spraying the leaves with an aqueous suspension of Uromyces appendiculatus spores (150 000 spores per ml). […] The contaminated bean plants are incubated for 24 hours at 20° C. and at 100% relative humidity, and then for 10 days at 20° C. and at 70-80% relative humidity. Grading (% of efficacy) is carried out 11 days after the contamination, in comparison with the control plants.

Data set [5] deals with Botrytis cinerea. In words: In vivo preventive test on Botrytis cinerea (grey mould). As to conditions: preventive spray on gherkin plants, grading 4 to 5 days after contamination vs control plants. As for the experimental part: Gherkin plants (“Vert petit de Paris” variety), sown in starter cups on a 50/50 peat soil-pozzolana substrate and grown at 24° C., are treated at the Z11 cotyledon stage by spraying with the active ingredient prepared as described above. Plants, used as controls, are treated with the mixture of acetone/tween/DMSO/water not containing the active material. After 24 hours, the plants are contaminated by spraying the cotyledons with an aqueous suspension of cryopreserved Botrytis cinerea spores (50 000 spores per ml). The spores are suspended in a nutrient solution composed of 10 g/L of PDB, 50 g/L of D-Fructose, 2 g/L of NH4NO3 and 1 g/L of KH2PO4. The contaminated gherkin plants are incubated at 17° C. and at 90% relative humidity. Grading (% of efficacy) is carried out 4 to 5 days after the contamination, in comparison with the control plants.

Data set [6] concerns Septoria tritici. In words: In vivo preventive test on Septoria tritici (leaf spot on wheat). Conditions: dose of 500 ppm; preventive spray on wheat plants; grading 24 days after contamination vs control plants. As for the experimental part:
Wheat plants (“Scipion” variety), sown in starter cups on a 50/50 peat soil-pozzolana substrate and grown at 22° C., are treated at the 1-leaf stage (10 cm height) by spraying with the active ingredient prepared as described above. Plants, used as controls, are treated with the mixture of acetone/tween/DMSO/water not containing the active material. After 24 hours, the plants are contaminated by spraying the leaves with an aqueous suspension of cryopreserved Septoria tritici spores (500 000 spores per ml). The contaminated wheat plants are incubated for 72 hours at 18° C. and at 100% relative humidity, and then for 21 days at 90% relative humidity. Grading (% of efficacy) is carried out 24 days after the contamination, in comparison with the control plants.

Data set [7] relates to Sphaerotheca fuliginea. The experiment in a line: In vivo preventive test on Sphaerotheca fuliginea (powdery mildew on cucurbits). Conditions: preventive spray on gherkin plants, grading 12 days after contamination vs control plants. As for the experimental part:
Gherkin plants (“Vert petit de Paris” variety), sown in starter cups on a 50/50 peat soil-pozzolana substrate and grown at 24° C., are treated at the Z11 cotyledon stage by spraying with the active ingredient prepared as described above. Plants, used as controls, are treated with the mixture of acetone/tween/DMSO/water not containing the active material. After 24 hours, the plants are contaminated by spraying the cotyledons with an aqueous suspension of Sphaerotheca fuliginea spores (100 000 spores per ml). The spores are collected from infected plants. The contaminated gherkin plants are incubated at about 20° C. and at 70-80% relative humidity. Grading (% of efficacy) is carried out 12 days after the contamination, in comparison with the control plants.

The subject of data set [8] is Pyrenophora teres. The experiment in a line: In vivo preventive test on Pyrenophora teres (net blotch on barley). As to conditions: preventive spray on barley plants, grading 14 days after contamination vs control plants. As for the experimental part: Barley plants (“Plaisant” variety), sown in starter cups on a 50/50 peat soil-pozzolana substrate and grown at 22° C., are treated at the 1-leaf stage (10 cm height) by spraying with the active ingredient prepared as described above. Plants, used as controls, are treated with the mixture of acetone/tween/DMSO/water not containing the active material. After 24 hours, the plants are contaminated by spraying the leaves with an aqueous suspension of Pyrenophora teres spores (12 000 spores per ml). The spores are collected from a 12-day-old culture. The contaminated barley plants are incubated for 48 hours at 20° C. and at 100% relative humidity, and then for 12 days at 20° C. at 70-80% relative humidity. Grading (% of efficacy) is carried out 14 days after the contamination, in comparison with the control plants.

Setting [9] is: method [a]: LC-MS at pH 2.7, 0.1% formic acid in water / acetonitrile, linear gradient 10% to 95% acetonitrile.
Where [10] appears, read: reversed phase HPLC column, method [a]: LC-MS at pH 2.7, 0.1% formic acid in water / acetonitrile, linear gradient 10% to 95% acetonitrile, Table 2 intermediates of formula (III-a), read-out: logP.

Where two headings read alike, the source gives them in different places.

With `CC1CCC(C)(C)c2cccc(NC(=O)c3c(C(F)F)nn(C)c3F)c21` (racemic) [Example 3], the Eff. % worked out at 93% in data set [1] (dose of 500 ppm), 94% in data set [2] (dose of 500 ppm), 100% in data set [4] (dose of 500 ppm) and 100% in data set [5] (dose of 500 ppm). Further, the logP in data set [3] (setting [9]) was 3.92[a].

With `CC1CCC(C)(C)c2cccc(NC(=O)c3c(C(F)F)nn(C)c3Cl)c21` (racemic) [Example 4], the Eff. % in data set [1] (dose of 500 ppm) stood at 92%; in data set [2] (dose of 500 ppm) it was 94%; in data set [4] (dose of 500 ppm) it was 99%. In addition, the logP in data set [3] (setting [9]) is 4.14[a].

On to `CC1c2cccc(NC(=O)c3c(C(F)F)nn(C)c3Cl)c2CCC1(C)C` (racemic) [Example 11], for which the results for the Eff. % in data set [2] (dose of 500 ppm) and in data set [4] (dose of 500 ppm) were 98% and 100%, respectively. Also, in data set [3] (setting [9]), the logP is 4.39[a].

On to `CC1CCc2c(NC(=O)c3c(C(F)F)nn(C)c3Cl)cccc2C1(C)C` (racemic) [Example 15], for which the Eff. % in data set [6] turned out to be 75%; in data set [7] (dose of 500 ppm), 70%; in data set [2] (dose of 500 ppm), 98%; in data set [4] (dose of 500 ppm), 95%. Also, the logP in data set [3] (setting [9]) is 4.29[a].

For `C=C1c2cccc(NC(=O)c3c(C(F)F)nn(C)c3Cl)c2CCC1(C)C` [Example 5], the results for the Eff. % in data set [2] (dose of 500 ppm), in data set [4] (dose of 500 ppm) and in data set [5] (dose of 500 ppm) were 94%, 100% and 93%, respectively. The logP in data set [3] (setting [9]) was 4.14[a].

Regarding `CC1CCc2c(NC(=O)c3c(C(F)F)nn(C)c3Cl)cccc2C1C` (stereo not shown) [Example 7], the Eff. % in data set [1] (dose of 500 ppm) is 97%; in data set [2] (dose of 500 ppm), 100%; in data set [4] (dose of 500 ppm), 100%. Moreover, in data set [3] (setting [9]), the logP was 4.09[a].

Consider `CC1CCc2c(NC(=O)c3c(C(F)F)nn(C)c3F)cccc2C1C` (stereo not shown) [Example 8], for which the Eff. % in data set [1] (dose of 500 ppm) amounted to 97%; in data set [7] (dose of 500 ppm), 85%; in data set [2] (dose of 500 ppm), 100%; in data set [4] (dose of 500 ppm) it was 99%; in data set [8] (dose of 500 ppm), 71%. The logP in data set [3] (setting [9]) is 3.83[a].

As for `Cn1nc(C(F)F)c(C(=O)Nc2ccc(F)c3c2CCCC3(C)C)c1Cl` [Example 16], the figures for the Eff. % in data set [2] (dose of 500 ppm) and in data set [4] (dose of 500 ppm) were 97% and 100%, respectively. Further, in data set [3] (setting [9]), the logP was 4.01[a].

With `Cn1nc(C(F)F)c(C(=S)Nc2ccc(F)c3c2CCCC3(C)C)c1Cl` [Example 17], the Eff. % in data set [2] (dose of 500 ppm) and in data set [4] (dose of 500 ppm) was 100% in each case. Besides, the logP in data set [3] (setting [9]) was 4.24[a].

`CCON=C1CCCc2c(NC(=O)c3c(C(F)F)nn(C)c3F)cccc21` [Example 18]: the Eff. % turned out to be 83% in data set [1] (dose of 500 ppm), 81% in data set [4] (dose of 500 ppm) and 92% in data set [8] (dose of 500 ppm). Besides, in data set [3] (setting [9]), the logP was 3.31[a].

`CON=C1CCCc2c(NC(=O)c3c(C(F)F)nn(C)c3F)cccc21` [Example 19]: the Eff. % in data set [1] (dose of 500 ppm) and in data set [5] (dose of 500 ppm) was 96% in each case. The logP in data set [3] (setting [9]) is 2.86[a].

Take `CCON=C1CCCc2c(NC(=O)c3c(C(F)F)nn(C)c3Br)cccc21` [Example 20]: in data set [3] (setting [9]), the logP is 3.57[a].

For the compound `CCON=C1CCCc2c(NC(=O)c3c(C(F)F)nn(C)c3Cl)cccc21` [Example 21], the figures for the Eff. % in data set [2] (dose of 500 ppm) and in data set [8] (dose of 500 ppm) were 94% and 75%, respectively. In data set [3] (setting [9]), the logP was 3.55[a].

As to `Cn1nc(C(F)F)c(C(=O)Nc2cccc3c2CCC(C)(C)C3)c1Br` [Example 23], the Eff. % in data set [2] (dose of 500 ppm) came to 79%; in data set [4] (dose of 500 ppm), 96%. For the same compound, the logP in data set [3] (setting [9]) is 4.04[a].

As for `Cn1nc(C(F)F)c(C(=O)Nc2ccc(F)c3c2CCCC3(C)C)c1F` [Example 24], the Eff. % in data set [1] (dose of 500 ppm) was found to be 75%; in data set [2] (dose of 500 ppm), 97%; in data set [4] (dose of 500 ppm), 100%. Further, the logP in data set [3] (setting [9]) was 3.76[a].

In the case of `CON=C1CCCc2c(NC(=O)c3c(C(F)F)nn(C)c3Br)cccc21` [Example 26], the logP in data set [3] (setting [9]) is 3.13[a].

Consider `Cn1nc(C(F)F)c(C(=O)Nc2cccc3c2C(C)(C)CCC3)c1Cl` [Example 27], for which, in data set [3] (setting [9]), the logP was 3.69[a].

Regarding `CON=C1CCCc2c(NC(=O)c3c(C(F)F)nn(C)c3Cl)cccc21` [Example 28], the logP in data set [3] (setting [9]) was 3.09[a].

`Cn1nc(C(F)F)c(C(=O)Nc2cccc3c2C(C)(C)CCC3)c1F` [Example 29]: in data set [3] (setting [9]), the logP is 3.44[a].

Regarding `Cn1nc(C(F)F)c(C(=S)Nc2cccc3c2CCC(C)(C)C3)c1Br` [Example 31], the logP in data set [3] (setting [9]) is 4.11[a].

As to `Cn1nc(C(F)F)c(C(=S)Nc2cccc3c2CCC(C)(C)C3)c1F` [Example 32], the Eff. % in data set [1] (dose of 100 ppm) stood at 75%; in data set [7] (dose of 100 ppm), 98%; in data set [2] (dose of 100 ppm), 94%; in data set [4] (dose of 100 ppm), 97%; in data set [5] (dose of 100 ppm) it was 73%; in data set [8] (dose of 100 ppm), 83%. In addition, the logP in data set [3] (setting [9]) was 3.99[a].

For `Cn1nc(C(F)F)c(C(=S)Nc2cccc3c2CCC(C)(C)C3)c1Cl` [Example 33, 5-chloro-3-(difluoromethyl)-N-(6,6-dimethyl-5,6,7,8-tetrahydronaphthalen-1-yl)-1-methyl-1H-pyrazole-4-carbothioamide], the figures for the Eff. % in data set [1] (dose of 100 ppm), in data set [2] (dose of 100 ppm) and in data set [4] (dose of 100 ppm) were 75%, 94% and 99%, respectively. Besides, the chromatographic logP in data set [3] (pH 2.7) is 4.11.

For `CC1(C)CCCc2c(N)cccc21` [III-a-1, 5,5-dimethyl-5,6,7,8-tetrahydronaphthalen-1-amine], the chromatographic logP in data set [3] (setting [10]) was determined as 1.69.

Consider `CC1(C)CCc2c(N)cccc2C1` [III-a-12, 6,6-dimethyl-5,6,7,8-tetrahydronaphthalen-1-amine], for which, in data set [3] (setting [10]), the chromatographic logP stood at 1.86.

The values above are taken from patent publication US9204646B2, “Pyrazole tetrahydronaphthyl carboxamides” (BAYER CROPSCIENCE AG, priority 2012, dated 2015).
